pIC50: −log10 of the molar value.
Assays:
MCF7 cells = experiment: Apoptotic cell death quantification (Annexin V-FITC/PI); format: cell-based, human; conditions: MCF7, 72 h; 8 and 14 100 nM, 9 500 nM
Experimental: (§1) Annexin V-FITC/PI apoptosis detection kit (Immunostep, Salamanca, Spain) was used to quantify HeLa, MCF7, or U87 MG cells by following the manufacturer’s guidelines. An amount of 5 × 10^4 cells/mL were seeded in 12-well plates (1 mL/well) and incubated in complete DMEM medium (see above) at 37 °C and 5% CO2 atmosphere for 24 h. Then, the medium was replaced with fresh complete DMEM in the presence or absence of the selected compounds (8, 9, and 14). The concentration of the compounds was selected according to their IC50 value for the antiproliferative activity in each cell line (see above, Section 2.4.4). HeLa cells were treated with 200 nM of compounds 8 and 14 and 500 nM of compound 9; MCF7 cells were treated with 100 nM of compounds 8 and 14 and 500 nM of compound 9; and U87 MG cells were treated with 50 nM of compound 8 and 100 nM of compounds 9 and 14. Untreated cells were used as negative controls. After 72 h of incubation, cells were collected, centrifugated, resuspended in the Annexin V binding buffer, and stained with Annexin V-FITC/PI. Cells were then incubated in darkness for 15 min at room temperature. Samples were analyzed using BD Accuri™ C6 Plus Flow Cytometer (BD Biosciences), and acquired data were analyzed using BD Accuri™ C6 Software (version 1.0.264.21).

U87MG cells [1] = experiment: as above; format: cell-based, human; conditions: U87 MG, 72 h; 8 50 nM, 9 and 14 100 nM
Experimental: as §1

HeLa cells = experiment: as above; format: cell-based, human; conditions: 72 h, 8 and 14 200 nM, 9 500 nM
Experimental: as §1

U87MG cells [2] = experiment: Cell cycle analysis (PI, flow cytometry); format: cell-based, human; conditions: for combined G2/M plus subG0/G1 populations: over the three time points (24, 48, 72 h)
Experimental: An amount of 8 × 10^4 cells/mL (HeLa, MCF7, or U87 MG cells) were seeded in 6-well plates (2 mL/well) and incubated in complete DMEM medium (see above) at 37 °C and 5% CO2 atmosphere for 24 h. Then, the medium was replaced with fresh complete DMEM in the presence or absence of the selected compounds (8, 9, and 14). The concentration of the compounds was selected according to their IC50 value for the antiproliferative activity in each cell line (see above, Section 2.4.4). […] Untreated cells were used as negative controls. Cells were harvested 24, 48, or 72 h following treatment and fixed in ice-cold ethanol/PBS (7:3) overnight. Cells were then washed twice with PBS, suspended in PBS, and incubated overnight in darkness with 0.2 mg/mL RNase A (Sigma-Aldrich, St. Louis, MO, USA), 50 µg/mL propidium iodide (Sigma-Aldrich, St. Louis, MO, USA), and Triton 10× at room temperature. BD Accuri™ C6 Plus Flow Cytometer (BD Biosciences) was used to analyze samples, and BD Accuri™ C6 Software (version 1.0.264.21) was used for data analysis.

bovine brain tubulin = experiment: Tubulin polymerization inhibition (turbidimetry); format: biochemical; conditions: for % TPI: compounds tested at 10 µM, with respect to the negative control; for pIC50: concentration inhibiting 50% of microtubular protein polymerization in vitro, read-out: TPI IC50
Outline: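 Turbidimetric assay using calf-brain microtubular protein: polymerization started by a shift from 4 °C to 37 °C and followed by absorbance at 450 nm. Percent inhibition calculated against a ligand-free control; IC50 determined only for compounds giving >50% inhibition at 10 µM. Triplicates in two independent experiments using separate protein preparations.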

HEK-293 cells = experiment: Lactate dehydrogenase (LDH) release assay; format: cell-based, human; conditions: HEK-293, 72 h; for LDH release: 100 µM
Experimental: CytoTox96® Non-Radioactive Cytotoxicity Assay kit (Promega, Madison, WI, USA) was used to measure the release of lactate dehydrogenase (LDH) by following the previously described method in [46]. […] After treatment, the supernatants were collected, and the intact attached cells were lysed using 0.1% (w/v) Triton X-100 in (0.9%) NaCl solution. Both the LDH released to culture media, as well as the LDH content within the cells, were determined spectrophotometrically at 490 nm on a 96-well plate reader (Infinite 200, Tecan, Salzburg, Austria) by following the manufacturer’s instructions. LDH release was defined by the ratio of LDH released/total LDH present in the cells, with the total LDH being 100%. All the samples were run in quadruplicate.

HT-29 cells = experiment: Cell growth inhibition (MTT) in the presence of 10 µM verapamil (sensitivity to MDR efflux pumps); format: cell-based, human; conditions: 10 µM verapamil (P-gp/MDR1 inhibitor)
[3] = 24 h, 8 50 nM, 14 and 9 200 nM (Figure 6 legend; 100 nM in methods)

With `COc1ccc2nc(N(C=O)Cc3cccnc3)sc2c1` [Compound 14, N-(6-methoxybenzo[d]thiazol-2-yl)-N-(pyridin-3-ylmethyl)formamide] the “apoptosis (apoptotic cells)” value (MCF7 cells) was 71%, the “cells in early or late apoptosis (response to Annexin V)” value (U87MG cells [1]) was 67% and the “early and late apoptosis (apoptotic cells)” value (HeLa cells) was 86%. For the same compound, the “combined G2/M plus subG0/G1 populations” value (U87MG cells [2]) was “roughly 75%”, the “% TPI” value (bovine brain tubulin) was 87% and the pIC50 (bovine brain tubulin) was 5.39. For the same compound, the LDH release (HEK-293 cells) was roughly 30%, the “cytotoxic effect by LDH release (in words)” value (HEK-293 cells; between 0.1 and 1 µM) was “No significant cytotoxic effects” and the pIC50 (HT-29 cells) was 6.51.

With `CCNC(=O)N(Cc1cccnc1)c1nc2ccc(OC)cc2s1` [Compound 8] the “Alive cells (PI−, AnV−)” value (MCF7 cells) was 46%, the “apoptosis (apoptotic cells)” value (MCF7 cells) was 47% and the “cells in early or late apoptosis (response to Annexin V)” value (U87MG cells [1]) was 80%. For the same compound, the “early and late apoptosis (apoptotic cells)” value (HeLa cells) was 93%, the G2/M population (U87MG cells [2]; [3]) was 39% and the SubG0/G1 population (U87MG cells [2]; [3]) was 41%. For the same compound, the “combined G2/M plus subG0/G1 populations” value (U87MG cells [2]) was roughly 85%, the “% TPI” value (bovine brain tubulin) was 100% and the pIC50 (bovine brain tubulin) was 5.54. For the same compound, the LDH release (HEK-293 cells) was roughly 30% and the pIC50 (HT-29 cells) was 6.67.

From paper PMC10301603, “Potent and Selective Benzothiazole-Based Antimitotics with Improved Water Solubility: Design, Synthesis, and Evaluation as Novel Anticancer Agents” (Pharmaceutics, 2023)
